Read-outs that look alike come from different tables or passages of the source.
Assays:
[1] = tested on: 3D7-strain P. falciparum asexual parasites; test: P. falciparum asexual growth inhibition assay (Pf GIA); format: cell-based, Plasmodium falciparum; conditions: dose response confirmation; read-out: Pf asexual growth inhibition assays IC50
Description: The asexual activity of active compounds was tested in dose response with parasite lactate dehydrogenase (LDH) activity used as a readout of parasite viability as described in [Gamo et al. (2010)]. Briefly, 3D7-strain P. falciparum asexual parasites were diluted to 0.25% parasitemia, 2% hematocrit in culture medium composed of RPMI medium with 25 mM HEPES, 2% D-sucrose, 0.3% L-glutamine, 150 μM hypoxanthine plus 5% albumax. 25 μl of parasite inoculum was then dispensed into each well of a 384 well plate containing test compounds and positive (50 μM chloroquine) and negative (DMSO) controls. Plates were incubated for 72 h at 37°C in a 5% CO2, 5%O2, 90% N2 environment before being frozen at −70°C. Plates were then thawed and 70 μl of reaction mix (143 mM sodium L-lactate, 143 mM 3-acetyl pyridine adenine dinucleotide, […] Nitro Blue tetrazolium chloride, […] diaphorase (2.83 U/ml), 0.7% Tween 20, 100 mM Tris–HCl pH 8.0) was added to each well using a Multidrop Combi automated dispenser. Plates were shaken to mix and then absorbance at 650 nm was measured after 10 min incubation at room temperature. Percent inhibition of asexual growth was then calculated with respect to positive and negative controls. Data presented is the mean of three independent biological replicates.

HepG2 cells = test: HepG2 cytotoxicity assay; conditions: for Pb ODA (this manuscript) HepG2 cytoxicity: HepG2 cytotoxicity listed with the Pb ODA data set (this manuscript); for IC50: read-out: HepG2 cytotoxicity assay IC50, dose response confirmation
Description: Briefly, HepG2 cells were seeded onto compound-treated 384 well plates at a density of 2,500 cells per well in Minimal Essential Medium (MEM) plus 10% fetal bovine serum and 1% non-essential amino acids solution (NEAA). Cells were incubated with test compounds or 50 μM doxorubicin (positive) and DSMO (negative) controls at 37°C for 48 h in a humidified 5% CO2 atmosphere. […] Cell viability was then measured in a fluorescent plate reader and percent inhibition calculated with respect to positive and negative controls.

[2] = tested on: P. berghei ookinete development; conditions: for % inhibition, Replicate A / % inhibition, Replicate B: primary screen at 1 μM
[3] = read-out: Pb ODA (this manuscript) IC50, P. berghei ookinete development assay, this manuscript
[4] = read-out: Pb Ookinete development assay IC50, dose response confirmation
[5] = unified HepG2 value across the three screens
[6] = read-out: Pb ODA IC50, this manuscript
[7] = HepG2 values of the three screens unified

SMILES | IC50 [1] | Pb ODA (this manuscript) HepG2 cytoxicity (HepG2 cells) | IC50 (HepG2 cells) | Is compound selective in assay? Pb ODA active? [2] | % inhibition, Replicate A [2] | % inhibition, Replicate B [2] | IC50 [2, 3] | IC50 [2, 4] | Unified cytotox (HepG2 cells; [5]) | Is compound selective in assay? Pb ODA active? ([2]; 1: YES, 0: NO) | IC50 [2, 6] | HepG2 cytoxicity (Pb ODA, this manuscript) (HepG2 cells) | Unified cytotox (HepG2 cells; [7]) | IC50 ([2]; read-out: Pb ODA IC50) | IC50 ([2]; read-out: Pb Ookinete development assay IC50)
Cc1nc(/N=C(\N)NC(=O)NC2CCCCC2)nc2ccccc12 [TCMDC-123808] | 1.7 nM | 35.48 µM | 35500 nM | 1 (key: 1: YES; 0: NO) | 57.73% | 102.93% | 1080 nM | 1080 nM |  |  |  |  |  |  | 
CCOc1ccc2[nH]c(C)cc(=NN=Cc3cccnc3)c2c1 [TCMDC-142047] | 139 nM |  | 15100 nM |  | 59.45% | 48.70% |  | 4520 nM | 15.14 µM | 0 (0: NO) | 4520 nM |  |  |  | 
COc1cc(Cn2ccc3c4c(N)nc(N)nc4ccc32)cc(OC)c1OC [TCMDC-137341] | < 0.3 nM |  | 1.7 nM |  | 61.35% | 58.11% |  |  |  |  |  | 0.0017 µM | 0.0017 µM | 560 nM | 556 nM
COc1ccc(-c2cnc(N)c(-c3ccc(C(N)=O)cc3)c2)cc1OC [TCMDC-133349] | 666 nM |  | 100000 nM |  | 68.77% | 82.48% |  | 426 nM | 100.00 µM | 1 (1: YES) | 430 nM |  |  |  | 
COc1ccc2nccc([C@@H](O)CN3CCC(NCc4cc5c(F)ccc(F)c5[nH]4)CC3)c2c1.O=C(O)C(=O)O [TCMDC-140739] | 98 nM |  | 14800 nM |  | 18.82% | 50.21% |  | 2790 nM |  | 0 (0: NO) | 2790 nM | 14.79 µM | 14.79 µM |  | 
Cc1c(Cc2ccccc2Br)cnc2nc(N)nc(N)c12.Cl [TCMDC-137244] | 4 nM | 0.00776 µM | 7.76 nM | 0 (key: 1: YES; 0: NO) | 44.00% | 63.36% | 8490 nM | 8490 nM |  |  |  |  |  |  | 
COc1cc(OC)c(NC(=O)C2c3ccccc3C(=O)N(CC(C)C)C2c2cccs2)cc1Cl (stereo not drawn) [TCMDC-124760] | 108 nM |  | 100000 nM |  | 44.76% | 67.88% |  | 8610 nM | 100.00 µM | 1 (1: YES) | 8610 nM |  |  |  | 
Cc1[nH]c(C)c(-c2ccc(C(F)(F)F)cc2)c(=O)c1Br [TCMDC-137429] | 369 nM | 100.00 µM | 100000 nM | 1 (key: 1: YES; 0: NO) | 133.13% | 107.96% | 650 nM | 648 nM |  |  |  |  |  |  | 
Nc1nc(N)c2c(ccc3c2cnn3Cc2cccnc2)n1 [TCMDC-131932] | 1.3 nM | 0.055 µM | 55 nM | 0 (key: 1: YES; 0: NO) | 68.89% | 58.00% | 2390 nM | 2390 nM |  |  |  |  |  |  | 
CCCC(C)n1ccc2c3c(N)nc(N)nc3ccc21 (stereo not drawn) [TCMDC-137964] | 35 nM |  | 30 nM |  | 50.53% | 51.77% |  | 4290 nM |  | 0 (0: NO) | 4290 nM | 0.03 µM | 0.03 µM |  | 
Cc1[nH]c(C)c(-c2ccc(-c3ccc(F)cc3)nc2)c(=O)c1Br [TCMDC-135925] | 319 nM |  | 33100 nM |  | 61.34% | 86.73% |  | 542 nM |  | 1 (1: YES) | 540 nM | 33.11 µM | 33.11 µM |  | 
COc1ccc(CCc2ccc(-c3c(C)[nH]c(C)c(Cl)c3=O)cc2)cc1 [TCMDC-135654] | 20 nM |  | 100000 nM |  | 86.19% | 104.99% |  | 143 nM |  | 1 (1: YES) | 140 nM |  | 100.00 µM |  | 
Cc1[nH]c2ccc(-c3ccccc3)cc2c(=O)c1Br [TCMDC-135426] | 136 nM |  | 100000 nM |  | 84.59% | 99.51% |  | 1250 nM | 100.00 µM | 1 (1: YES) | 1250 nM |  |  |  | 
Cc1[nH]c(C)c(-c2ccc(OCc3cccc(C(F)(F)F)c3)nc2)c(=O)c1Br [TCMDC-135656] | 41 nM |  | 8610 nM |  | 92.61% | 102.80% |  | 106 nM |  | 1 (1: YES) | 110 nM | 8.61 µM | 8.61 µM |  | 
CCCN1CCN(CCNc2c3ccccc3nc3ccccc23)CC1 [TCMDC-137549] | 965 nM |  | 7410 nM |  | 61.15% | 52.76% |  | 2010 nM |  | 0 (0: NO) | 2010 nM | 7.41 µM | 7.41 µM |  | 
CCCCCCCc1c(C)nc2c(OC)cccc2c1O [TCMDC-138016] | 195 nM | 100.00 µM | 100000 nM | 1 (key: 1: YES; 0: NO) | 91.04% | 66.93% | 530 nM | 529 nM |  |  |  |  |  |  | 
Nc1nc(N)c2c(Cl)c(N3CCOCC3)ccc2n1 [TCMDC-137868] | 72 nM |  | 8.61 nM |  | 53.12% | 26.39% |  | 3800 nM | 0.00861 µM | 0 (0: NO) | 3800 nM |  |  |  | 
